From PubChem BioAssay (NCI) come the findings set out here.

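How tested: cells in 96-well plates exposed to compound for 48 hours at five concentrations. GI50 = concentration required for 50% inhibition of growth. The concentration for full growth arrest is given as TGI.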

What all share (assay): DTP human tumour cell line panel, 48 h
Test [1] deals with SF-539 CNS.
Test [2] deals with MDA-MB-231 breast.
The subject of test [3] is SK-MEL-5 melanoma.
The test system of test [4] is HOP-62 NSCLC.
In test [5] the test system is HT29 colon.
Test [6] concerns M14 melanoma.
The test system of test [7] is SK-OV-3 ovarian.
For test [8], the system named is NCI-H226 lung.
For test [9], the system named is COLO 205 colon.
Test [10] relates to K-562 leukemia.

One may read the GI50 as the concentration at which growth is held to half of that of the control. A word on the TGI: it is the concentration giving total growth inhibition. A lower TGI goes with greater sensitivity of the cells. On to `O=C(/C=C/c1ccccn1)c1ccccc1O`, for which the GI50 is 2.05 µM in test [1]; 2.8 µM in test [2]; 3.95 µM in test [3]; 2.4 µM in test [4]; 2.23 µM in test [5]; 2 µM in test [6]. In addition, the GI50 in [7] is 5.54 µM; in test [8], 2.18 µM; in test [9] it was 1.69 µM; in test [10], 2.09 µM. In addition, the TGI is 4.2 µM in test [1]; 7.5 µM in test [2]; 14.1 µM in [3]; 6.15 µM in test [4]; 4.84 µM in test [5]; 4.28 µM in [6]. In addition, the TGI in [7] was 17.9 µM; in [8], 6.23 µM; in test [9], 3.3 µM; in [10], more than 100 µM.
For the molecule `C=C1C(=O)O[C@H]2[C@H]1CC/C(C=Nc1ccc(C(F)(F)F)cc1N)=C\CC[C@@]1(C)O[C@@H]21`, the GI50 in test [1] was 3.94 µM; in test [2], 7.05 µM; in test [3], 13.5 µM; in test [4], 12.8 µM; in test [5], 3.65 µM; in test [6], 8.04 µM. The GI50 in test [7] was 16.3 µM; in test [8], 10 µM; in [9], 4.21 µM; in test [10], 4.39 µM. The TGI in [1] turned out to be 15.4 µM; in [2] it was 24.3 µM; in test [3] it was 26.7 µM; in [4], 26.5 µM; in test [5], 8.6 µM; in test [6], 22.3 µM. Also, the TGI in test [7] amounted to 30 µM; in test [8], 32.2 µM; in test [9], 16.3 µM; in test [10] it was 16.5 µM.
On to `C=C1C(=O)O[C@H]2[C@H]1CC/C(COC(=O)/C=C\C(=O)NCc1ccc(Cn3c(=O)sn(-c4ccc(OC)cc4)c3=O)cc1)=C\CC[C@@]1(C)O[C@@H]21`, for which the GI50 in test [1] was 0.736 µM; in test [2], 0.701 µM; in test [3], 0.828 µM; in test [4], 2.76 µM; in [5], 0.395 µM; in [6], 0.603 µM. The GI50 in test [7] was 4.77 µM; in [8], 1.28 µM; in test [9], 0.633 µM; in [10], 0.603 µM. Besides, the TGI in [1] came to 1.41 µM; in test [2], 1.7 µM; in [3], 1.53 µM; in test [4] it was 10 µM; in test [5], 1.64 µM; in test [6] it was 1.36 µM. Moreover, the TGI in test [7] was found to be 11.6 µM; in test [8] it was 5.51 µM; in [9] it was 2.02 µM; in [10] it was 50 µM.
On to `O=C(O)c1cc(N/C=C2\C(=O)c3ccccc3OC2O)ccc1O` (centres undefined), for which the GI50 in [1] is 16.7 µg/mL; in test [2], 24.5 µg/mL; in [3], 18 µg/mL; in test [4], 29.8 µg/mL; in test [5], 28.8 µg/mL; in test [6] it was 25.4 µg/mL. Besides, the GI50 was 29.3 µg/mL in test [7], 37.7 µg/mL in test [8], 30.6 µg/mL in [9] and 13.3 µg/mL in test [10]. Moreover, the TGI in test [1] was 43.9 µg/mL; in test [2] it was 78.9 µg/mL; in test [3], 39.3 µg/mL; in test [4] it was 75.3 µg/mL; in test [5], 71.6 µg/mL; in [6], 66.1 µg/mL. Moreover, the TGI amounted to 75.1 µg/mL in test [7], 98.1 µg/mL in test [8], 77.9 µg/mL in test [9] and 72.1 µg/mL in [10].
`C[As](C)Sc1ccnc(S[As](C)C)n1`: the GI50 in [1] is 2.77 µM; in test [2], 2.62 µM; in test [3] it was 2.3 µM; in [4], 19 µM; in [5], 3.98 µM; in [6] it was 3.94 µM. For the same molecule, the GI50 in test [7] was 12.4 µM; in test [8], 31.2 µM; in [9] it was 1.53 µM; in [10] it was 1.06 µM. Further, the TGI in test [1] was more than 34.8 µM; in test [2] it was 15.8 µM; in test [3], 10.7 µM; in test [4], more than 46.3 µM; in test [5] it was more than 39.3 µM; in [6], more than 44.9 µM. Further, the TGI in [7] is more than 100 µM; in test [8], more than 100 µM; in test [9], more than 39.3 µM.
For the molecule `CCCCCCCCCCCCOC1C(CNC(=O)C2OC3OC(C)(C)OC3C2NC(=O)CN2CCN(c3ccccn3)CC2)OC2OC(C)(C)OC21` (centres undefined), the GI50 in test [1] was 1.93 µM; in test [2], 1.67 µM; in test [3], 1.7 µM; in test [4] it was 1.94 µM; in [5], 1.75 µM; in test [6] it was 1.68 µM. The GI50 in test [7] is 5.18 µM; in test [8], 1.82 µM; in test [9], 2.33 µM; in [10], 1.67 µM. Also, the TGI amounted to 3.44 µM in test [1]; 3.14 µM in [2]; 3.09 µM in test [3]; 3.53 µM in test [4]; 3.34 µM in test [5]; 3.1 µM in [6]. Moreover, the TGI in [7] worked out at 9.86 µM; in [8], 3.72 µM; in [9], 5.01 µM; in test [10] it was 4.56 µM.
`COc1cc(-c2cc(/C=C/C(=O)c3ccc4c(c3)OCO4)[nH]n2)cc(OC)c1OC`: the GI50 in [1] was 2.07 µM; in [2] it was 3.5 µM; in [3] it was 4.51 µM; in test [4], 2.18 µM; in [5], 2.18 µM; in test [6], 3.86 µM. Besides, the GI50 in test [7] is 5.76 µM; in test [8], 3.31 µM; in [9], 1.87 µM; in test [10], 3.2 µM. Also, the TGI in test [1] is 5.73 µM; in [2], more than 100 µM; in test [3] it was more than 100 µM; in test [4] it was 5.17 µM; in [5], 4.55 µM; in test [6], more than 100 µM. Further, the TGI in test [7] is 26.1 µM; in test [8], more than 100 µM; in test [9], 3.85 µM; in [10], 9.81 µM.
